These results are taken from US20090253704A1, “PYRROLOTRIAZINONE DERIVATIVES FOR USE AS STEAROYL CoA DESATURASE INHIBITORS” (priority 2008, published 2009).

The assay addresses T1, Stearoyl-CoA desaturase (SCD) (Rattus norvegicus, UniProt P07308).
T1 construct: from tissue; host or cells: liver microsomes of male Sprague Dawley rats, SCD induced by carbohydrate-rich diet
T1 sequence (P07308 1-358): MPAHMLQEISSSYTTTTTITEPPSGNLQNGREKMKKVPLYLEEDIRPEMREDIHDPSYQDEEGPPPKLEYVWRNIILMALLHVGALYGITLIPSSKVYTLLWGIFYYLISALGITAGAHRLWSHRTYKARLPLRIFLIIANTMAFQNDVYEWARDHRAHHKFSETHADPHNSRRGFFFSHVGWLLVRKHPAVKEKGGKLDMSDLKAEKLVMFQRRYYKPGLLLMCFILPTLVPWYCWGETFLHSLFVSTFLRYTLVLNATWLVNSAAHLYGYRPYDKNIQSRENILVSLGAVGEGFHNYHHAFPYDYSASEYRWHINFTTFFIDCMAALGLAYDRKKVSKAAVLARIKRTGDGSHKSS
Nature of the assay: SCD assay in rat liver microsomes ([3H]stearoyl CoA desaturation, adapted from Talamo and Bloch). The settings on record: rat liver microsomes 0.2 mg/ml final, 30 min preincubation, 45 min reaction at room temperature. Format: biochemical. From the text: The identification of compounds of the invention as SCD inhibitors was readily accomplished using the SCD enzyme and microsomal assay procedure described in Talamo and Bloch (1969) Analytical Biochemistry 29:300-304.
The rat liver microsomes were collected according to the procedure described in Ozols (1990) Methods Enzm, 182:225.
Male Spraque Dawley Rats were placed on regimented fasting protocol for one week to stimulate SCD enzymatic activity. 48-hour periods were alternated between feeding and fasting to induce and down-regulate SCD activity with SCD activity being induced via carbohydrate rich diet prior to liver perfusion and collection.
The rats were anesthetized with Isoflurane inhalation anesthetic, the liver perfused with cold phosphate buffered saline (PBS), weighed, and chilled in cold homogenization buffer (250 mM sucrose, 10 mM Tris, 1 mM EDTA, pH 7.6).
The livers were finely minced and placed in homogenization tube. Homogenization buffer (40 mL) was added to the homogenization tube and the liver homogenized and centrifuged in a pre-chilled […] for 10 min at 4° C.
Following centrifugation, the supernatant was collected and the pellet removed and discarded. The supernatant was centrifuge at 10,000 G for 35 minutes. Following centrifugation, the supernatant was collect and the pellet discarded. The supernatant was then centrifuged in a pre-chilled 45-Ti rotor at 130,000 G (41,000 RPM) for 90 minutes at 4° C.
The supernatant was then aspirated off and the collected microsomal pellet washed in 25 mL of Glycerol PBS (1×PBS 7.4, 20% Glycerol) and resuspended in 4-5 volumes of Glycerol PBS.
The protein concentration of the microsomal preparation was determined by BCA assay (Pierce) and the microsomes were aliquoted and stored at −80° C.
Biobeads were ground to a smaller size in a mortar and pestle and resuspended in 3.6% TCA. The beads were then filtered through […] mesh.
SCD was determined in the desaturase assay buffer. This assay buffer contained 0.1 M Tris buffer, pH 7.2, 2 mM NADH, 4.8 mM ATP, 0.5 mM CoA, 4.8 mM MgCl2, and 0.1% BSA.
The Procedure for the SCD Assay (Adapted from Talamo and Bloch (1969) Analytical Biochemistry 29:300-304)
1 μl of each compound of Formula I was added to an assay plate by a low volume (0.5-10 μL) multichannel pipette. A DMSO control was also prepared. The microsomes were quickly thawed and added to assay buffer so that a concentration of 0.4 mg/ml was achieved (0.2 mg/ml assay final). 50 μl of the microsome suspension in assay buffer was then added into each well in the compound assay plate, the plate was covered, and the microsomes preincubated with the compounds for 30 minutes on the orbital shaker, 50-75 rpm, at room temperature.
After preincubation, the reaction was initiated by the addition of 50 μl of substrate solution (20 μM Stearoyl CoA, [3H]Stearoyl CoA, 74 nCi) to the preincubated microsomes/compound suspensions in MilliQ (Millipore) H2O. The reaction mixtures were then incubated for 45 minutes on the orbital shaker at 50-75 rpm at room temperature.
The reaction was terminated by the addition of 10 μl of 21% trichloroacetic acid (TCA) to the reaction mixture followed incubation on the orbital shaker for 30 minutes at 50-75 rpm at room temperature followed by centrifugation for 5 minutes at 3700 rpm.
50 μl of a 6% Bio-Bead suspension in H2O was added to the reaction mixture and the assay plate was sealed. The Bio-Bead mixture was incubated on the orbital shaker for 1 hour, 100-150 rpm at room temperature, and then the mixture was centrifuged at 2000 g for 5 minutes to pellet the Bio-Beads.
25 μl of the supernatant was harvested from each well and transferred to a detection plate. 100 μl of OptiPhase SuperMix scintillation cocktail (containing sufficient NaOH to neutralize the TCA) was added and the solutions mixed by vigorous shaking (300-400 rpm) for 5 minutes at room temperature.
On the technique in general: Liver microsomes are vesicles of endoplasmic reticulum, rich in cytochrome P450 enzymes.
Turning to `CCCCCCC(=O)Nc1cc2c(=O)n(Cc3ccc(Cl)c(Cl)c3)cnn2c1` [N-(3-(3,4-dichlorobenzyl)-4-oxo-3,4-dihydropyrrolo[1,2-f][1,2,4]triazin-6-yl)heptanamide], half-maximal inhibition (IC50) required 27000 nM.

For the compound `O=C(CO)Nc1cc2c(=O)n(CCCOc3cc(Cl)ccc3Cl)cnn2c1` [N-(3-(3-(2,5-dichlorophenoxy)propyl)-4-oxo-3,4-dihydropyrrolo[1,2-f][1,2,4]triazin-6-yl)-2-hydroxyacetamide], the IC50 (in general, the point on the concentration scale where inhibition reaches its midpoint) was 240 nM.

In turn, `O=C(Nc1cc2c(=O)n(CCc3ccc(Cl)cc3)cnn2c1)C(O)CO` (stereo not drawn) [N-(3-(4-chlorophenethyl)-4-oxo-3,4-dihydropyrrolo[1,2-f][1,2,4]triazin-6-yl)-2,3-dihydroxypropanamide] displayed a concentration for half-maximal inhibition (IC50) of 830 nM.

`O=C(CO)Nc1cc2c(=O)n(Cc3ccc(Cl)c(C(F)(F)F)c3)cnn2c1` [N-(3-(4-chloro-3-(trifluoromethyl)benzyl)-4-oxo-3,4-dihydropyrrolo[1,2-f][1,2,4]triazin-6-yl)-2-hydroxyacetamide] gave an IC50 of 320 nM.

Compound `O=C(CO)Nc1cc2c(=O)n(CCc3ccc(Cl)cc3)cnn2c1` [N-(3-(4-chlorophenethyl)-4-oxo-3,4-dihydropyrrolo[1,2-f][1,2,4]triazin-6-yl)-2-hydroxyacetamide] had an IC50 of 14000 nM.

In turn, `O=C(CO)Nc1cc2c(=O)n(CCOc3ccccc3Cl)cnn2c1` [N-(3-(2-(2-chlorophenoxy)ethyl)-4-oxo-3,4-dihydropyrrolo[1,2-f][1,2,4]triazin-6-yl)-2-hydroxyacetamide] returned an IC50 of 5600 nM.

In the case of `O=C(Nc1cc2c(=O)n(Cc3ccc(Cl)c(Cl)c3)cnn2c1)C(O)CO` (stereo not drawn) [N-(3-(3,4-dichlorobenzyl)-4-oxo-3,4-dihydropyrrolo[1,2-f][1,2,4]triazin-6-yl)-2,3-dihydroxypropanamide], it took 10 nM to reach half-maximal inhibition (IC50).

Consider `O=C(CO)Nc1cc2c(=O)n(Cc3ccc(Cl)c(Cl)c3)cnn2c1` [N-(3-(3,4-dichlorobenzyl)-4-oxo-3,4-dihydropyrrolo[1,2-f][1,2,4]triazin-6-yl)-2-hydroxyacetamide], for which the half-maximal inhibitory concentration (IC50) came to 250 nM.

The compound `O=C(Nc1cc2c(=O)n(Cc3ccc(Cl)c(Cl)c3)cnn2c1)OCc1ccccc1` [benzyl 3-(3,4-dichlorobenzyl)-4-oxo-3,4-dihydropyrrolo[1,2-f][1,2,4]triazin-6-ylcarbamate] returned a half-inhibitory concentration (IC50) of 1600 nM.
